{"source": "patent US9199931B2", "about": "“Pyrrolidine derivatives” (UNIVERSITE CLAUDE BERNARD LYON I, priority 2012, dated 2015)", "key": {"[1]": {"target": "CB1 (receptors of type 1 to endocannabinoids, CB-1) (Homo sapiens, UniProt P21554)", "sequence (P21554 whole entry)": "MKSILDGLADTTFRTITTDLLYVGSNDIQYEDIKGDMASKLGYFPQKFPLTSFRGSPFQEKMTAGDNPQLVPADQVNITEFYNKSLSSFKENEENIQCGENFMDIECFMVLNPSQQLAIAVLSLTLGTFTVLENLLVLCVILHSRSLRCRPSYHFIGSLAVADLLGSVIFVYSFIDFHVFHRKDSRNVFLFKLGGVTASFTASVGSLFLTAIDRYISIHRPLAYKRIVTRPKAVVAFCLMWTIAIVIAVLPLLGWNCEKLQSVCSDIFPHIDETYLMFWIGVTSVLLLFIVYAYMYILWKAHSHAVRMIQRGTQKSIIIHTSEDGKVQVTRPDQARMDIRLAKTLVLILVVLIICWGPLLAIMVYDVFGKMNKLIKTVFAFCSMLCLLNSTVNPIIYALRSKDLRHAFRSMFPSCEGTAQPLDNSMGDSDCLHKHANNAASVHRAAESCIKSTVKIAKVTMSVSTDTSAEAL", "test": "in vitro specific binding inhibition (radioligand, 60 receptors)", "settings": "n = 2, read-out: % of inhibition of the control specific binding at 10 μM, CB1 towards its agonistic ligand", "method": "In order to determine the target receptors of the compounds according to the invention, experiments of specific binding inhibition were conducted in vitro. Pharmacology in vitro: tests of specific bindings.\nSixty receptors were tested in the study according to standardized methods by using their specific radioligand as reported earlier.\nThe results may be expressed as a % of the specific control bond [(measured specific bond/control specific bond)×100] and as a % of inhibition of the specific control bond [100−(measured specific bond/control specific bond)×100] obtained in the presence of one of the two tested compounds (I.2 and I.4).\nThese experiments (Table 2 hereafter) have shown that the compounds I.2 and I.4 modify the specific binding of a control agonist of the receptors of type 1 to endocannabinoids (CB-1) (according to the test described in reference)."}, "[2]": {"system": "extracellular glutamate (Glu) and aspartate (Asp) levels, striatum", "test": "in vivo intracerebral microdialysis: extracellular glutamate and aspartate levels in striatum", "design": "species or system rat (Wistar)", "settings": "for effect on extracellular Glu and Asp levels: 1 mmol/L by reverse microdialysis, striatum, anesthetized rats; for effect of co-administration of CNQX on the compound's effects: compound at 1 mmol/L co-administered with CNQX, Asp levels are increased; for action on glutamate when the glutamate levels are high: rat brain, initial glutamate level high, notably greater than 10 μmol/L; for Effect on Glu end/or Asp: striatum of anesthetized rats, reverse microdialysis", "description": "One of the widespread methodological approaches, both in academic laboratories and in industrial laboratories, and used for following the extracellular concentrations of glutamate (Glu) and of aspartate (Asp) before, during and after administration of pharmacological agents targeting their receptors is intracerebral microdialysis. This type of test was therefore used, in order to track the in vivo effects of the molecules according to the invention as compared with those of kainic acid, for which the synthesized molecules are structural analogues (substituted pyrrolidines).\nConcentric microdialysis probes with a regenerated cellulose membrane (Spectra/Por hollow fiber; molecular cut off 6,000 Da, 225 μm in external diameter, a length of 3 mm, Spectrum Medical Industries, Los Angeles, Calif., USA) and tubings in molten silica (40 μm i.d×105 μm o.d., Polymicro Technology, Phoenix, Ariz., USA) were manufactured according to a design already published (Bert et al 1996, [26]). They were perfused with a flow rate of 1 μl/min with artificial cerebrospinal fluid or CSF (145.0 mM NaCl; […]; 1.0 mM MgCl2; 1.2 mM CaCl2; 0.45 mM NaH2PO4; 1.55 mM Na2HPO4; pH 7.4) by means of a Harvard pump (Model 22, South Natick, Mass., USA).\nThe in vivo microdialysis experiments were conducted on male rats of the Wistar strain with an average weight of about 300 g, (provider: Charles River, L'Arbresle, France) anesthetized with urethane (a dose of 1.4 g/kg via an i.p, route, provider: Sigma-Aldrich, St. Louis, Mo., USA). The probes were implanted dorso lateral striatum according to the following stereotaxic coordinates relatively to the bregma: antero-posteriority 0 mm, laterality […], depth […] under the cortical surface. The dialysates (samples) were collected from the beginning of the 4th hour after implantation of the probe. The samples were taken every 5 minutes in PCR tubes of 200 μl (Axygene, Union City, Calif., USA) and immediately frozen at −20° C. The samples were analyzed subsequently in order to determine the glutamate and aspartate contents. The pharmacological agents and the compounds according to the invention were administered in situ by reverse microdialysis by changing the perfusion at the inlet of the probe of the CSF without any pharmacological agent to the one containing the pharmacological agent(s) (Bert et al., 2002 [27]; Parrot et al 2003 [28]).\nCE analyses were carried out with a P/ACE MDQ system (Beckman-Coulter, Fullerton, Calif., USA) equipped with an external detector LIF ZETALIF (Picometrics, Toulouse, France). Detection was achieved by fluorescence at a wavelength of 442 nm and generated with a He—Cd laser Omnichrome (Chino, Calif., USA). The emission intensity was collected at 490 nm. Before analysis, the samples were derived with naphthalene-2,3-dicarboxaldehyde with cyanide ions as a nucleophilic agent (pH 8.7; borate buffer 500 mM). The separations were conducted in a capillary of molten silica with an internal diameter of […] and an outer diameter of 375 μm with a length of 63 cm, with a useful length of 52 cm (Polymicro Technology) by using the procedure entirely detailed and validated earlier (Sauvinet et al., 2003 [29] Bert et al., 2002 (271). The Glu and Asp concentrations measured in striatum samples were above detection limits and were determined by interpolation by means of standard ranges.\nAll the reagents of the neurochemical study (except for the compound according to the invention) were purchased from Sigma-Aldrich (St Louis, Mo., USA). The mother-solutions of the synthesized molecules, of the kainate (KA, agonist of the KA receptors for glutamate), CNQX, 6-cyano-7-nitroquinoxaline-2,3(1H,4H)-dione (CAS-No. 115066-14-3, antagonist of KA receptors), from Glu and Asp were aliquoted to 1 or 0.1 mM and stored at −30° C. After their administration, the tested pharmacological agents were diluted in artificial CSF. […]"}, "[3]": {"test": "inflow through in vitro model of the choroidal epithelium (blood/cerebrospinal fluid barrier)", "format": "in vitro ADME", "settings": "rat; basolateral exposure at 150 μm for 60 minutes, 37° C.; read-out: penetration rate of the peripheral blood compartment towards the brain compartment", "method": "A study was conducted with the BIP platform (Centre de Recherche en Neurosciences de Lyon, Lyons, France) for comparing the inflow of four compounds of interest through the cerebrospinal liquid/blood barrier. The study was carried out with an in vitro model of the choroidal epithelium restoring this interface. Choroidal cells were exposed by their basolateral pole to the compounds at a concentration of 150 μm for 60 minutes. The permeability of the cell monolayers to saccharose was analyzed in terms of these transfers, in order to detect possible toxicity of the compounds.\nThe epithelial cells are isolated from the choroidal plexus of a lateral ventricle taken on newly born rats as described earlier. The cells are sown on microporous supports (Transwell PC, pore size 0.4 μm, surface area […], diameter 6.5 mm), and cultivated in DMEM-F12 (1:1) supplemented with 10% FCS, 2 mM glutamine and 50 μg/ml gentamycin, as well as with various growth factors. The medium is renewed every two days until the day of experiment.\nThe transfer measurements were conducted under kinetic conditions (3 phases), with stirring (200 rpm), at 37° C., in a Ringer-Hepes buffer (RH). The volumes used in both compartments during the transfer are adjusted so as to minimize any hydrostatic pressure effect. The inserts are rinsed in RH before initiating the permeability study. For each compound, the transfer is carried out in parallel on three laminin inserts (without any cell) and three inserts with a cell monolayer.\nInflow measurements (from blood to the cerebrospinal fluid) were conducted during a kinetic study (20 min periods) for the four compounds of interest. Briefly, the compound of interest, diluted to 150 μm in RH is placed in the lower compartment of a multi-well cultivation plate, which reproduces the blood compartment. Transfer is initiated by placing a culture insert containing RH in the upper compartment, which corresponds to the cerebrospinal fluid. At regular intervals, an aliquot of the upper medium is taken and replaced with an equivalent volume of preheated RH at 37° C. […] The samples taken are analyzed by high performance liquid chromatography (HPLC) on an LC10 Shimadzu system chain (Duisburg, Germany), equipped with a spectrophotometric detector.\nAt the end of the transfer of the compounds of interest, [^14C]-saccharose is added as an aliquot into the upper compartment of the inserts. […] The media sampled in the wells and in the inserts at the end of the transfer of saccharose are analyzed by liquid scintillator counting in a β Canberra Packard TRI-GARB 1600TR counter. […]\nThe permeability coefficient of the cell monolayer Pe (in cm·min^−1) is calculated from the PS determined on laminin filters and filters with cells and by taking into account the exchange surface area. […]"}, "[4]": {"system": "glutamate levels in the striatum", "settings": "ex vivo and in vivo preparations, refs [89-92]; cited from earlier work"}}, "note": "“Also recorded” adds a separate entry of the source."}
{"compound": "N[C@@H](C(=O)O)[C@@H]1CNC[C@@H]1O", "note": "[Compound I.2, (αR,3S,4R) α-amino-(4-hydroxy-pyrrolidin-3-yl)acetic acid]", "values": [{"measurement": "inhibition at 10 µM", "setting": "[1]", "value": 29, "unit": "%"}, {"measurement": "effect on extracellular Glu and Asp levels", "setting": "[2]", "value": "a reduction in the Glu and Asp levels; also recorded: a reduction in the cerebral extracellular glutamate levels"}, {"measurement": "effect of co-administration of CNQX on the compound's effects", "setting": "[2]", "value": "seems to partly attenuate its effects"}, {"measurement": "action on glutamate when the glutamate levels are high", "setting": "[2]", "value": "inhibitory actions on the glutamate"}, {"measurement": "Pharmacological potentiality for modulating the Glu system", "setting": "[2]; summary of preliminary results", "value": "Yes"}, {"measurement": "Action through the KA receptors", "setting": "[2]; summary of preliminary results, co-administration of CNQX (antagonist of KA receptors)", "value": "yes for Asp"}, {"measurement": "Effect on Glu end/or Asp", "setting": "[2]; summary of preliminary results", "value": "Yes"}, {"measurement": "Papp B→A at 60 min, 150 μm", "setting": "[3]", "value": "≤ 5", "unit": "×10⁻⁶ cm/s"}]}
{"compound": "Cc1c(C(=O)c2cccc3ccccc23)c2cccc3c2n1[C@H](CN1CCOCC1)CO3", "note": "[WIN 55, 212-2]", "values": [{"measurement": "effect on glutamate levels in the striatum", "setting": "[4]", "value": "induces a reduction in the glutamate levels"}]}
{"compound": "CNC(=O)[C@H](NC(C)=O)[C@@H]1CNC[C@@H]1O", "note": "[Compound I.3, α-acetamido-(4-hydroxy-pyrrolidin-3-yl)-N-methylacetamide(αR,3S,4R)]", "values": [{"measurement": "effect on extracellular Glu and Asp levels", "setting": "[2]", "value": "an effect similar to that of kainate"}, {"measurement": "effect of co-administration of CNQX on the compound's effects", "setting": "[2]", "value": "seems to partly attenuate its effects"}, {"measurement": "action on glutamate when the glutamate levels are high", "setting": "[2]", "value": "inhibitory actions on the glutamate"}, {"measurement": "Pharmacological potentiality for modulating the Glu system", "setting": "[2]; summary of preliminary results", "value": "yes"}, {"measurement": "Effect on Glu end/or Asp", "setting": "[2]; summary of preliminary results", "value": "yes"}, {"measurement": "Papp B→A at 60 min, 150 μm", "setting": "[3]", "value": "≤ 5", "unit": "×10⁻⁶ cm/s"}]}
{"compound": "C=C(C)[C@H]1CN[C@H](C(=O)O)[C@H]1CC(=O)O", "note": "[KA, kainate, reference compound]", "values": [{"measurement": "effect on extracellular Glu and Asp levels", "setting": "[2]", "value": "affected"}]}
{"compound": "N[C@H](C(=O)O)[C@H]1CNC[C@H]1O", "note": "[Compound I.1, (αS,3R,4S) α-amino-(4-hydroxy-pyrrolidin-3-yl)acetic acid]", "values": [{"measurement": "effect on extracellular Glu and Asp levels", "setting": "[2]", "value": "effects similar to KA"}, {"measurement": "action on glutamate when the glutamate levels are high", "setting": "[2]", "value": "inhibitory actions on the glutamate"}, {"measurement": "Pharmacological potentiality for modulating the Glu system", "setting": "[2]; summary of preliminary results", "value": "Yes"}, {"measurement": "Effect on Glu end/or Asp", "setting": "[2]; summary of preliminary results", "value": "Yes"}, {"measurement": "Papp B→A at 60 min, 150 μm", "setting": "[3]", "value": "≤ 5", "unit": "×10⁻⁶ cm/s"}]}
{"compound": "Cc1c(C(=O)NN2CCCCC2)nn(-c2ccc(Cl)cc2Cl)c1-c1ccc(Cl)cc1", "note": "[rimonabant]", "values": [{"measurement": "effect on glutamate levels in the striatum", "setting": "[4]", "value": "cause an increase or do not affect the extracellular glutamate levels"}]}
{"compound": "CNC(=O)[C@@H](N)[C@H]1CNC[C@H]1O", "note": "[Compound I.4, .-amino-(4-hydroxy-pyrrolidin-3-yl)-N-methylacetamide(αS,3R,4S)]", "values": [{"measurement": "inhibition at 10 µM", "setting": "[1]", "value": 29, "unit": "%"}, {"measurement": "effect on extracellular Glu and Asp levels", "setting": "[2]", "value": "a reduction in the Glu and Asp levels; also recorded: a reduction in the cerebral extracellular glutamate levels"}, {"measurement": "effect of co-administration of CNQX on the compound's effects", "setting": "[2]", "value": "seems to partly attenuate its effects"}, {"measurement": "action on glutamate when the glutamate levels are high", "setting": "[2]", "value": "inhibitory actions on the glutamate"}, {"measurement": "Pharmacological potentiality for modulating the Glu system", "setting": "[2]; summary of preliminary results", "value": "yes"}, {"measurement": "Effect on Glu end/or Asp", "setting": "[2]; summary of preliminary results", "value": "yes"}, {"measurement": "Papp B→A at 60 min, 150 μm", "setting": "[3]", "value": "≤ 5", "unit": "×10⁻⁶ cm/s"}]}
{"compound": "CN[C@H](C(=O)O)[C@H]1CNC[C@H]1O", "note": "(racemic) [Compound I.5, (3,4-cis).α-N-methylamino-(4-hydroxy-pyrrolidin-3-yl)acetic acid]", "values": [{"measurement": "melting point", "value": 192, "unit": "°C"}]}
